Data as given in the supplement of paper PMC4954754.
Values joined by “and” are separate entries in the source; they are usually repeats but may differ in a detail not shown here. Equal values may be shown once. ± gives the uncertainty stated by the source.

Key:
Settings in all cases: 18 h
HEK293T-Rex ERSE-FLuc [1] = experiment: EC50 for ERSE-FLuc reporter activation
Method: (§1)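 Dose-response of hit compounds in HEK293T-Rex cells stably expressing ERSE-FLuc or XBP1-RLuc reporters, 18 hr treatment, 1536-well; luminescence normalised to 500 nM thapsigargin (100%) and DMSO (0%), fitted to give EC50 (M) and maximal activation; '>' marks EC50 above the top tested dose (~17 µM).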

HEK293T-Rex ERSE-FLuc [2] = experiment: maximal ERSE-FLuc activation from dose-response fit, relative to thapsigargin (% of thapsigargin); higher = stronger activation
Method: as §1

HEK293T-Rex XBP1-RLuc [3] = experiment: EC50 for XBP1-RLuc reporter activation
Method: as §1

HEK293T-Rex XBP1-RLuc [4] = experiment: maximal XBP1-RLuc activation from dose-response fit, relative to thapsigargin (% of thapsigargin); higher = stronger activation
Method: as §1

Structure (SMILES)	EC50 for ERSE-FLuc reporter activation (HEK293T-Rex ERSE-FLuc [1])	maximal ERSE-FLuc activation (HEK293T-Rex ERSE-FLuc [2])	EC50 for XBP1-RLuc reporter activation (HEK293T-Rex XBP1-RLuc [3])	maximal XBP1-RLuc activation (HEK293T-Rex XBP1-RLuc [4])
O=C(COC(=O)c1ccc(O)c(O)c1)Nc1nc(-c2ccccc2)cs1	> 18.2 µM	36.1 ± 4.4	16.8 µM	53.4 ± 3.6
COc1ccc2oc(=Nc3cc(F)ccc3F)c(C(N)=O)cc2c1	> 14.7 µM	19.1 ± 2.2	> 14.7 µM	1.95 ± 1.5
COc1ccc(CCNC(=O)c2cccc(-c3ccc(N4CCOCC4)nc3)c2)cc1	> 17 µM	15.9 ± 4.6	> 17 µM	2.04 ± 0.93
Cc1cnc(NC(=O)c2sc3nc4c(C)cccc4cc3c2N)s1	11.5 µM	58.9 ± 6.1	6.88 µM	96.9 ± 3.6
Oc1cccc(Nc2nc(-c3ccc(O)c(O)c3)cs2)c1	12.5 µM	83.3 ± 11	16.5 µM	51.6 ± 3.2
O=C(/C=C/c1ccco1)Nc1ccccn1	> 16.9 µM	18.7 ± 4.8	> 16.9 µM	1.83 ± 1.4
C/C(=N\NC(=O)c1n[nH]c2c1CCCC2)c1ccc(Br)cc1	> 16.9 µM	32.5 ± 9.9	> 16.9 µM	8.77 ± 2
Cc1ccc(NC(=O)/C=C/c2ccco2)nc1	> 16.9 µM	17.5 ± 3.4	> 16.9 µM	7.43 ± 1.4
Cc1ccc(-c2csc(Nc3ccc(O)cc3)n2)cc1	> 16.9 µM	40.9 ± 7.5	8.04 µM	127 ± 1.4
Cc1ccc(O)c(N/C=C/C(=O)c2ccc(F)cc2)c1	3.31 µM	303 ± 13	11.9 µM	84.1 ± 19
CCN(CC)c1ccc(NC(=O)c2cccc(OC)c2)cc1	> 17.8 µM	29.7 ± 5.3	> 17.8 µM	2.18 ± 7.1
Cc1ccc2c(N)c(C(=O)c3ccc4c(c3)OCO4)sc2n1	> 16.9 µM	25.1 ± 2.7	> 16.9 µM	11.4 ± 3.8
N/C(=N\N=C\c1ccc(O)c(O)c1)c1nonc1N	5.38 µM	96.9 ± 3.7	> 16.9 µM	41.6 ± 6.1
Cc1ccc2nc(/C(C#N)=C/c3ccc(O)cc3)[nH]c2c1	> 16.9 µM	35.3 ± 5.6	> 16.9 µM	21.3 ± 3.4
CCOc1cccc(C(=O)Nc2ccc(Br)cn2)c1	> 15.1 µM	23.3 ± 2.1	> 15.1 µM	4.18 ± 0.09
CCCc1cc(C(=O)Nc2cc(C)ccc2O)no1	2.84 µM	116 ± 9.5	> 16.9 µM	30 ± 2.2
Cc1cc(C)c2nc3sc(C(=O)N4CCCCC4)c(N)c3cc2c1	> 16.9 µM	34 ± 5.5	> 16.9 µM	13.4 ± 1.4

Structure (SMILES)	EC50 for ERSE-FLuc reporter activation (HEK293T-Rex ERSE-FLuc [1])	maximal ERSE-FLuc activation (HEK293T-Rex ERSE-FLuc [2])	EC50 for XBP1-RLuc reporter activation (HEK293T-Rex XBP1-RLuc [3])	maximal XBP1-RLuc activation (HEK293T-Rex XBP1-RLuc [4])
Nc1ccccc1NC(=O)c1ccc(C(F)(F)F)cc1	9.12 µM	73.1 ± 8.1	> 19.9 µM	37.7 ± 3.5
CCN1C(=O)/C(=C\c2ccc(O)cc2O)SC1=S	> 16.9 µM	30.9 ± 10	> 16.9 µM	13.3 ± 1.5
Cc1cc2nc(-c3ccc(SCC#N)nc3)[nH]c2cc1C	> 16.9 µM	20.4 ± 3.8	> 16.9 µM	8.52 ± 0.53
COc1ccc(C2C=C3Oc4ccccc4N=C3NN2)cc1 (configuration not stated)	> 16.9 µM	27 ± 2.8	> 16.9 µM	14.1 ± 2.1
Cc1ccc(O)c(NC(=O)c2cc(-c3cccs3)on2)c1	2.78 µM	126 ± 5.9	> 16.9 µM	32.4 ± 6.1
Nc1ccc2nc(/C=C/c3ccco3)[nH]c2c1	> 16.9 µM	27.4 ± 2.5	> 16.9 µM	32.3 ± 1.3
Cc1ccc(O)c(NC(=O)CSc2ccccc2)c1	3.9 µM	83.1 ± 25	> 16.9 µM	21.2 ± 3.5
Cc1ccc(O)c(NC(=O)CN(C)S(=O)(=O)c2ccc(Cl)cc2)c1	> 16.9 µM	43.4 ± 10	> 16.9 µM	31.4 ± 0.96
O=C(Nc1ccc2c(c1)OCCO2)C(=O)Nc1ccccc1Cl	> 16.9 µM	16.5 ± 0.52	> 16.9 µM	2.68 ± 2.8
Nc1nc(Nc2ccc(Cl)c(Cl)c2)nc2ccccc12	7.93 µM	138 ± 11	12.3 µM	61.9 ± 4
CCCCCCOc1ccc(/C(C)=N/NC2=NCCN2)cc1[N+](=O)[O-]	> 16.9 µM	34.7 ± 1.6	> 16.9 µM	16.3 ± 1.6
O=C1NC(=Nc2ccccc2)S/C1=C/c1ccc(O)c(O)c1	6.2 µM	83.8 ± 12	> 15.4 µM	38.5 ± 6.1
Cc1ccc2nc(/C(C#N)=C\c3cc(Cl)cc4c3OCOC4)[nH]c2c1	> 16 µM	20.1 ± 3.4	> 16 µM	3.21 ± 1.4
Cc1ccc(C)c(/C=N/Nc2nncc3ccccc23)c1	> 17.1 µM	26.4 ± 5.4	> 17.1 µM	8.33 ± 1.1
Oc1ccc(-c2csc3nc(-c4ccccc4)nn23)c(O)c1	> 16.9 µM	30.1 ± 2.2	> 16.9 µM	32.4 ± 1.3
C/C=C(/C)C(=O)O[C@H]1C(C)=C2[C@H]([C@@H]1OC(=O)CCCCCCC)[C@@](C)(OC(C)=O)C[C@H](OC(=O)CCC)[C@@]1(O)[C@H]2OC(=O)[C@@]1(C)O	0.07 µM and 0.0669 µM	100 and 87.8	0.11 µM and 0.146 µM	127 and 103
